Reference: ChEMBL document CHEMBL1201862, “PubChem BioAssay data set” (2004)
Several values for one entry are separate records, joined by “and”; a condition that tells them apart may be missing. Identical values can stand only once. Activity calls are given as the source filed them.

Legend:
[1] = target: T1, Heat shock factor protein 1 (Mus musculus, UniProt P38532); experiment: inhibition of MG132-induced HSE-luciferase signal, confirmation, cell-based, NIH3T3, luminescence, dose retest (AID 2382); format: functional;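 further: NIH3T3 fibroblasts with HSF1-driven luciferase reporter stressed by proteasome inhibitor MG132; luminescence from HSF1-driven luciferase expression after 8 hours of MG132 stress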
T1 sequence (P38532 whole entry): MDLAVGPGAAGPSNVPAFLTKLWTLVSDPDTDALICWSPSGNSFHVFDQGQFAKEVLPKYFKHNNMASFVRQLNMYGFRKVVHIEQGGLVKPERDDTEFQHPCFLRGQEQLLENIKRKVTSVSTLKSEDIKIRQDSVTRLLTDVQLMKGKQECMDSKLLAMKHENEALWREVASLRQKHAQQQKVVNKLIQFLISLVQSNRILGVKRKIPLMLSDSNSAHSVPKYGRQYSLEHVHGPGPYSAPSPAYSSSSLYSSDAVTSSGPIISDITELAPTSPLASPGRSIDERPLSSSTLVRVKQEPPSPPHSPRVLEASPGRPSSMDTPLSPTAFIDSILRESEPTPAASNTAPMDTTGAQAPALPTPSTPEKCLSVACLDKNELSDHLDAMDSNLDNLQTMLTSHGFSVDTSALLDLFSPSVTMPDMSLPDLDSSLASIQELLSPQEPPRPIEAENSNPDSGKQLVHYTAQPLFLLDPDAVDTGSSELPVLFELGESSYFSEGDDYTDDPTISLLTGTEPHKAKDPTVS

[2] = target: Peroxisome proliferator-activated receptor gamma (Homo sapiens, UniProt P37231); experiment: PPARg partial agonists, dose response, cell-based, luminescence, assay provider (AID 504447); format: functional
Coagulation factor XII = target: T2, Coagulation factor XII (Homo sapiens, UniProt P00748); experiment: Factor XIIa Dose Response Confirmation from Single Well HTS. [Related pubchem assays (depositor defined):AID701]; format: functional
T2 sequence (P00748 whole entry): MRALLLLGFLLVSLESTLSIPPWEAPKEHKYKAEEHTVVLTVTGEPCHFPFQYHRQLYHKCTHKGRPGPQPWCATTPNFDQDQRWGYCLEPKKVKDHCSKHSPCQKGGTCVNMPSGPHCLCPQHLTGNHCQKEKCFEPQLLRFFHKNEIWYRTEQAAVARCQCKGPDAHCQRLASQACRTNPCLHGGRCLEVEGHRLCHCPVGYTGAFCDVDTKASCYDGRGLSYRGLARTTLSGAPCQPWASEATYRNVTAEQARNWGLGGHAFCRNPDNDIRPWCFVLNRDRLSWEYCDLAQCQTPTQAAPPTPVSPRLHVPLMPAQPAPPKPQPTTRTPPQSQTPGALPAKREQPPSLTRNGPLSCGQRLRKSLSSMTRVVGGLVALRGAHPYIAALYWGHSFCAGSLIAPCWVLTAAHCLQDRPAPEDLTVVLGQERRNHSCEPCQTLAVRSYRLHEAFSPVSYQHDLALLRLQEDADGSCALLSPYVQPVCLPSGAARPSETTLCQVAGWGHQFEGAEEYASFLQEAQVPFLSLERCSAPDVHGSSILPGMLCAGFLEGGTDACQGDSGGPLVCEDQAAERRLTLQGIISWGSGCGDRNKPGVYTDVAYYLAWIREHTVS

Hexokinase HKDC1 = Hexokinase HKDC1 (Homo sapiens, UniProt Q2TB90); experiment: HKDC1 hexokinase activators, dose response, biochemical, W721R variant (AID 504730); format: functional
Nonstructural protein 1 = Nonstructural protein 1 (Influenza A virus, UniProt Q194T2); format: functional, Influenza A virus (A/California/07/2009(H1N1))
Hexokinase-1 = Hexokinase-1 (Homo sapiens, UniProt P19367); experiment: hexokinase 1 activators, dose response, selectivity assay for HKDC1 activator project, biochemical (AID 504762); format: functional
[3] = target: Heat shock protein HSP 90-alpha (Homo sapiens, UniProt P07900); format: functional, organism-based
[4] = target: Voltage-dependent T-type calcium channel subunit alpha-1H (Homo sapiens, UniProt O95180); experiment: Cav3.2 T-type channel inhibitors, cell-based, synthetic library set 1, calcium flux (AID 493022); format: functional
Troponin, cardiac muscle = Troponin, cardiac muscle (Homo sapiens, UniProt P19429+P45379+P63316); experiment: Fluorescence-based biochemical high throughput dose response assay for activators of the calcium sensitivity of cardiac Regulated Thin Filaments (RTF). [Related pubchem assays (depositor defined):AID493008, AID493018, AID504382, AID504383]; format: protein-complex assay
[5] = target: T3, Runt-related transcription factor 1/Core-binding factor subunit beta (Homo sapiens, UniProt Q01196+Q13951); experiment: inhibitors of RUNX1 Runt–CBFb-SMMHC binding, biochemical, TR-FRET (AID 1438); format: protein assay
[6] = target: T3, Runt-related transcription factor 1/Core-binding factor subunit beta; experiment: inhibitors of RUNX1 Runt–CBFb-SMMHC binding, primary screen, biochemical, FRET, Cerulean-Runt, Venus-CBFb-SMMHC, uHTS (AID 1434); format: protein assay;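 further: partner is the CBFb-SMMHC leukemia fusion protein rather than wild-type CBFb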
[7] = target: Alkaline phosphatase, placental type (Homo sapiens, UniProt P05187); experiment: PLAP enzyme inhibitors, confirmation, biochemical, luminescence (AID 1512); format: functional
[8] = target: Glyceraldehyde-3-phosphate dehydrogenase (Homo sapiens, UniProt P04406)
[9] = target: T4, Alkaline phosphatase, tissue-nonspecific isozyme (Homo sapiens, UniProt P05186); experiment: human TNAP enzyme inhibitors, SAR follow-up, biochemical, luminescent, dose response (AID 1056)
T4 sequence (P05186 whole entry): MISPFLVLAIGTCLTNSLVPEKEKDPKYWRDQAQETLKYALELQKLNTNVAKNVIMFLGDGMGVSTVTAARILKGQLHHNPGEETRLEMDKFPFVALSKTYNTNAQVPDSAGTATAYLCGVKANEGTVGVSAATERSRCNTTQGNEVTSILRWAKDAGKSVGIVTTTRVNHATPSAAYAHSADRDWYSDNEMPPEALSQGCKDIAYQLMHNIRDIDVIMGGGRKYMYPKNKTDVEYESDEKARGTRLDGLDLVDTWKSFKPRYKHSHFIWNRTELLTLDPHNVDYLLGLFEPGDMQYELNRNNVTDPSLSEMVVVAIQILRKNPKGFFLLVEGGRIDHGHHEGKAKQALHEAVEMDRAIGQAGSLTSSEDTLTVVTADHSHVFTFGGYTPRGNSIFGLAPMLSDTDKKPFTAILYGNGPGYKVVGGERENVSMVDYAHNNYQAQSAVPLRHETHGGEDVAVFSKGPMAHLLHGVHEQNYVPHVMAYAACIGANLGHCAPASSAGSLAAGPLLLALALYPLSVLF

[10] = target: T4, Alkaline phosphatase, tissue-nonspecific isozyme; experiment: SAR assay for compounds inhibiting TNAP in the absence of phosphate acceptor performed in a luminescent assay. [Related pubchem assays (depositor defined):AID1548, AID1659, AID518]

**Q.** For Cc1cc(C(=O)CN2C(=O)C(=O)N(Cc3ccccc3)C2=O)c(C)n1-c1ccc2c(c1)OCCO2, which EC50 [1] is on record?
**A.** > 195 µM (not active)

**Q.** What about the EC50 [2] of the same compound?
**A.** 15 µM (active)

**Q.** CC(C)CN(CC(C)C)S(=O)(=O)N1CCC(C(=O)NCCc2ccc(Cl)cc2)CC1 was tested. Which IC50 (Coagulation factor XII) did it give?
**A.** > 50 µM (inactive)

**Q.** CC(=NNC(=S)Nc1cccc(C)c1)c1ccccn1 was tested. Which EC50 (Hexokinase HKDC1) did it give?
**A.** 2.27 µM (active)

**Q.** And the IC50 (Nonstructural protein 1)?
**A.** 8.54 µM (active)

**Q.** What about the EC50 (Hexokinase-1) of the same compound?
**A.** > 80 µM (inactive)

**Q.** What about the AC50 [3] of the same compound?
**A.** 2.25 µM (active)

**Q.** With Cc1ccc(-c2nnc(NC(=O)C(C)(C)Oc3ccccc3)o2)cc1C as the compound, how does the EC50 [4] read?
**A.** 2.1 µM (active)

**Q.** Oc1[nH]nc(C(F)(F)F)c1/C=N/c1cccc(Cl)c1 was tested. Which EC50 (Troponin, cardiac muscle) did it give?
**A.** > 71.5 µM (inactive)

**Q.** Which IC50 [5] does the source give for Cn1c(=O)c(/C=N/c2ccccc2)c(O)c2ccccc21 here?
**A.** > 100 µM (inactive)

**Q.** And the IC50 [6]?
**A.** > 100 µM (inactive)

**Q.** COc1ccc(C)cc1S(=O)(=O)Nc1cccnc1 was tested. Which IC50 [7] did it give?
**A.** > 100 µM (inactive)

**Q.** What about the IC50 [8] of the same compound?
**A.** > 100 µM (not active)

**Q.** And the IC50 [9]?
**A.** 2.34 µM (active) and 1.6 µM (active)

**Q.** And the IC50 [10]?
**A.** 16.6 µM (active) and 16.4 µM (active)
